Data reported in DBAASP.
Values after ≈ are worked out from the molar mass of the structure shown. Values joined by “and” are separate entries in the source; they are usually repeats but may differ in a detail not shown here. Equal entries are not always repeated.

Tests used:
Experiment in all cases: ≥ marks a high value that may be exact or a test limit, other limits are often not marked, values filed in µg/mL are converted to µM
Bacillus subtilis = test system: Bacillus subtilis
Escherichia coli = test system: Escherichia coli
Staphylococcus aureus = test system: Staphylococcus aureus
Candida albicans = test system: Candida albicans
[1] = test system: Escherichia coli ATCC 25922
[2] = test system: Staphylococcus aureus ATCC 29213
[3] = test system: Enterococcus faecalis ATCC 29212
[4] = test system: Pseudomonas aeruginosa ATCC 27853
[5] = test system: Staphylococcus epidermidis ATCC 12228

| MIC (Escherichia coli) | MIC (Staphylococcus aureus) | MIC [1] | MIC [2] | SMILES | further results |
| --- | --- | --- | --- | --- | --- |
| 47.4 µM (≈ 78.3 µg/mL) | 1.57 µM (≈ 2.6 µg/mL) |  |  | CC[C@H](C)[C@H](NC(=O)[C@H](CC(C)C)NC(=O)[C@H](C)NC(=O)[C@@H]1CCCN1C(=O)[C@H](CC(C)C)NC(=O)CN)C(=O)N[C@@H](CO)C(=O)N[C@@H](Cc1c[nH]c2ccccc12)C(=O)N[C@H](C(=O)N[C@@H](CCCCN)C(=O)N[C@@H](CCCN=C(N)N)C(=O)N[C@@H](CCCCN)C(=O)N[C@@H](CCCN=C(N)N)C(=O)NCC(=O)NCC(N)=O)[C@@H](C)CC [GLPALISWIKRKRGG] | MIC (Bacillus subtilis): 1.48 µM (≈ 2.45 µg/mL) |
|  |  | 3.89 µM and 7.77 µM | 1.94 µM and 3.89 µM | CC[C@H](C)[C@H](NC(=O)[C@H](CCCCN)NC(=O)[C@H](CCCCN)NC(=O)[C@@H](NC(=O)[C@@H](NC(=O)[C@H](CCCCN)NC(=O)[C@H](Cc1ccccc1)NC(=O)[C@H](CC(C)C)NC(=O)CN)[C@@H](C)CC)[C@@H](C)CC)C(=O)N[C@@H](Cc1c[nH]c2ccccc12)C(=O)N[C@@H](CCCCN)C(=O)N[C@@H](CO)C(=O)N[C@@H](Cc1ccccc1)C(N)=O [GLFKIIKKIWKSF] | MIC [3]: 15.5 µM and 31.1 µM |
|  |  | 96 µM (≈ 125 µg/mL) | 96 µM (≈ 125 µg/mL) | CC(C)[C@H](NC(=O)[C@H](Cc1c[nH]c2ccccc12)NC(=O)[C@H](CCCN=C(N)N)NC(=O)[C@@H](N)CCCN=C(N)N)C(=O)N[C@@H](C)C(=O)N[C@@H](Cc1c[nH]c2ccccc12)C(=O)N[C@@H](CCCN=C(N)N)C(=O)N[C@@H](CC(N)=O)C(=O)N[C@@H](CCCN=C(N)N)C(=O)O [RRWVAWRNR] |  |
|  |  | 20 µM (≈ 34.3 µg/mL) | 20 µM (≈ 34.3 µg/mL) | CC(=O)N[C@@H](CC(C)C)C(=O)N[C@@H](CCCCN)C(=O)N[C@@H](CCCCN)C(=O)N[C@@H](CC(C)C)C(=O)N[C@@H](CC(C)C)C(=O)N[C@@H](CCCCN)C(=O)N1CCC[C@H]1C(=O)N[C@@H](CC(C)C)C(=O)N[C@@H](CCCCN)C(=O)N[C@@H](CCCCN)C(=O)N[C@@H](CC(C)C)C(=O)N[C@@H](CC(C)C)C(=O)N[C@@H](CCCCN)C(=O)N[C@@H](CC(C)C)C(N)=O [LKKLLKPLKKLLKL] |  |

Second part, the compound before the results:

| SMILES | MIC (Escherichia coli) | MIC (Staphylococcus aureus) | MIC [1] | MIC [2] | further results |
| --- | --- | --- | --- | --- | --- |
| CC(=O)N[C@@H](CCCCN)C(=O)N[C@@H](Cc1ccc(O)cc1)C(=O)N[C@H](C(=O)NCC(=O)N[C@@H](CCCCN)C(=O)N[C@@H](CS)C(=O)N[C@H](C(=O)N[C@@H](CCCCN)C(=O)N[C@@H](CO)C(=O)N[C@@H](CCCCN)C(=O)N[C@@H](CC(N)=O)C(=O)N[C@@H](CCC(=O)O)C(=O)N[C@@H](CS)C(=O)N[C@@H](CCCCN)C(N)=O)[C@@H](C)O)[C@@H](C)O [KYTGKCTKSKNECK] |  |  |  |  | MIC (Candida albicans): 10 µM (≈ 16.6 µg/mL) |
| CC(=O)N[C@@H](CC(C)C)C(=O)N[C@@H](CCCCN)C(=O)N[C@@H](CCCCN)C(=O)N[C@@H](CC(C)C)C(=O)N[C@@H](CC(C)C)C(=O)N1CCC[C@H]1C(=O)N[C@@H](CC(C)C)C(=O)N[C@@H](CC(C)C)C(=O)N[C@@H](CCCCN)C(=O)N[C@@H](CCCCN)C(=O)N[C@@H](CC(C)C)C(=O)N[C@@H](CC(C)C)C(=O)N[C@@H](CCCCN)C(=O)N[C@@H](CC(C)C)C(N)=O [LKKLLPLLKKLLKL] |  |  | 10 µM (≈ 17 µg/mL) | 2.5 µM (≈ 4.26 µg/mL) |  |
| CC[C@H](C)[C@H](NC(=O)[C@H](Cc1c[nH]c2ccccc12)NC(=O)CNC(=O)[C@H](CCCCN)NC(=O)CNC(=O)[C@H](Cc1ccccc1)NC(=O)[C@H](Cc1cnc[nH]1)NC(=O)[C@H](C)NC(=O)[C@H](C)NC(=O)[C@H](C)NC(=O)[C@H](CCCCN)NC(=O)CNC(=O)[C@H](Cc1ccccc1)NC(=O)[C@H](CCCCN)NC(=O)[C@H](C)NC(=O)[C@@H](NC(=O)CN)C(C)C)C(=O)N[C@@H](CCCCN)C(=O)N[C@@H](CCC(=O)O)C(=O)N[C@@H](CCSC)C(=O)N[C@@H](CC(C)C)C(=O)N[C@@H](CC(N)=O)C(=O)N[C@@H](CO)C(N)=O [GVAKFGKAAAHFGKGWIKEMLNS] |  |  | > 76 µM | > 76 µM | MIC [4]: > 76 µM |
| CC[C@H](C)[C@H](NC(=O)CNC(=O)[C@H](CC(C)C)NC(=O)[C@@H](NC(=O)[C@H](Cc1ccc(O)cc1)NC(=O)[C@@H](NC(=O)[C@H](CO)NC(=O)[C@@H](NC(=O)[C@@H]1CCCN1C(=O)[C@@H](NC(=O)[C@@H](N)CO)C(C)C)[C@@H](C)O)C(C)C)[C@@H](C)O)C(=O)N[C@@H](CCCCN)C(=O)N[C@H](C(=O)N[C@@H](CC(C)C)C(=O)N[C@@H](Cc1c[nH]c2ccccc12)C(=O)N[C@@H](CO)C(=O)N[C@@H](C)C(=O)N[C@@H](Cc1ccc(O)cc1)C(=O)N[C@@H](CCCCN)C(=O)N[C@@H](Cc1cnc[nH]1)C(=O)N[C@@H](CCCN=C(N)N)C(=O)N[C@@H](CCCCN)C(=O)N[C@H](C(=O)N[C@H](C(=O)N[C@@H](CCC(=O)O)C(=O)N[C@@H](CCCCN)C(=O)N[C@@H](CO)C(=O)N[C@@H](Cc1ccccc1)C(=O)N[C@@H](CC(N)=O)C(=O)N[C@@H](CCCCN)C(=O)NCC(=O)N[C@@H](Cc1ccccc1)C(=O)N[C@@H](Cc1ccc(O)cc1)C(=O)N[C@@H](Cc1cnc[nH]1)C(=O)O)[C@@H](C)CC)[C@@H](C)O)[C@@H](C)CC [SVPTSVYTLGIKILWSAYKHRKTIEKSFNKGFYH] |  |  |  |  | MIC [5]: 50 µM (≈ 200 µg/mL) |
| CC[C@H](C)[C@H](NC(=O)[C@H](CC(C)C)NC(=O)[C@H](C)NC(=O)[C@@H]1CCCN1C(=O)[C@H](CC(C)C)NC(=O)CN)C(=O)N[C@@H](CO)C(=O)N[C@@H](CO)C(=O)N[C@H](C(=O)N[C@@H](CCCCN)C(=O)N[C@@H](CCCN=C(N)N)C(=O)N[C@@H](CCCCN)C(=O)N[C@@H](CCCN=C(N)N)C(=O)N[C@@H](CCC(N)=O)C(=O)N[C@@H](CCC(N)=O)C(N)=O)[C@@H](C)CC [GLPALISSIKRKRQQ] | > 180 µM | 22.5 µM (≈ 38.2 µg/mL) |  |  | MIC (Bacillus subtilis): ≥ 45.1 µM |
| CC(=O)N[C@@H](CC(C)C)C(=O)N[C@@H](CCCCN)C(=O)N[C@@H](CCCCN)C(=O)N[C@@H](CC(C)C)C(=O)N[C@@H](CC(C)C)C(=O)N[C@@H](CCCCN)C(=O)N[C@@H](CC(C)C)C(=O)N[C@@H](CC(C)C)C(=O)N[C@@H](CCCCN)C(=O)N[C@@H](CCCCN)C(=O)N[C@@H](CC(C)C)C(=O)N[C@@H](CC(C)C)C(=O)N[C@@H](CCCCN)C(=O)N[C@@H](CC(C)C)C(=O)N[C@@H](C)C(=O)NCC(N)=O [LKKLLKLLKKLLKLAG] |  |  | 20 µM (≈ 37.2 µg/mL) | 20 µM (≈ 37.2 µg/mL) |  |
| CC[C@H](C)[C@H](NC(=O)CNC(=O)[C@H](CCCCN)NC(=O)[C@@H](NC(=O)[C@H](CC(C)C)NC(=O)[C@H](CO)NC(=O)CNC(=O)[C@H](CC(C)C)NC(=O)[C@H](CC(=O)O)NC(=O)[C@H](C)NC(=O)[C@H](CCCCN)NC(=O)[C@H](CC(C)C)NC(=O)[C@@H](NC(=O)[C@H](CCC(=O)O)NC(=O)[C@H](CCCCN)NC(=O)[C@H](Cc1ccccc1)NC(=O)CN)C(C)C)C(C)C)C(=O)N[C@@H](C)C(=O)N[C@@H](C)C(=O)N[C@@H](Cc1cnc[nH]1)C(=O)N[C@H](C(=O)N[C@@H](C)C(=O)N[C@@H](CC(N)=O)C(N)=O)C(C)C [GFKEVLKADLGSLVKGIAAHVAN] | 214 µM (≈ 500 µg/mL) | 214 µM (≈ 500 µg/mL) |  |  | MIC (Candida albicans): > 400 µM |
| CC[C@H](C)[C@H](NC(=O)[C@H](CC(C)C)NC(=O)[C@H](Cc1cnc[nH]1)NC(=O)[C@@H](NC(=O)[C@@H](NC(=O)[C@H](C)NC(=O)CNC(=O)[C@H](CC(C)C)NC(=O)[C@H](C)NC(=O)[C@H](C)NC(=O)[C@H](CCCCN)NC(=O)CNC(=O)[C@@H](NC(=O)CNC(=O)[C@H](CCCCN)NC(=O)[C@@H](NC(=O)[C@@H](NC(=O)[C@H](CC(=O)O)NC(=O)[C@H](CC(C)C)NC(=O)[C@H](Cc1ccccc1)NC(=O)CN)C(C)C)C(C)C)C(C)C)C(C)C)[C@@H](C)O)C(=O)N[C@@H](CC(N)=O)C(=O)N[C@@H](CCC(N)=O)C(=O)NCC(=O)N[C@@H](CCC(=O)O)C(=O)N[C@@H](CCC(N)=O)C(N)=O [GFLDVVKGVGKAALGAVTHLINQGEQ] | 55.5 µM (≈ 145 µg/mL) | 111 µM (≈ 291 µg/mL) |  |  | MIC (Candida albicans): 222 µM (≈ 582 µg/mL) |
| CC[C@H](C)[C@H](NC(=O)[C@H](CC(C)C)NC(=O)[C@H](Cc1cnc[nH]1)NC(=O)[C@@H](NC(=O)[C@@H](NC(=O)[C@H](C)NC(=O)CNC(=O)[C@H](CC(C)C)NC(=O)[C@H](C)NC(=O)[C@H](C)NC(=O)[C@H](CCCCN)NC(=O)CNC(=O)[C@@H](NC(=O)CNC(=O)[C@H](CCCCN)NC(=O)[C@H](CC(C)C)NC(=O)[C@@H](NC(=O)[C@H](CC(=O)O)NC(=O)[C@H](CC(C)C)NC(=O)[C@H](Cc1ccccc1)NC(=O)CN)C(C)C)C(C)C)C(C)C)[C@@H](C)O)C(=O)N[C@@H](CC(N)=O)C(=O)N[C@@H](CCC(N)=O)C(=O)NCC(=O)N[C@@H](CCC(=O)O)C(=O)N[C@@H](CCC(N)=O)C(N)=O [GFLDVLKGVGKAALGAVTHLINQGEQ] | 27.5 µM (≈ 72.5 µg/mL) | 27.5 µM (≈ 72.5 µg/mL) |  |  | MIC (Candida albicans): 55.1 µM (≈ 145 µg/mL) |
| CC[C@H](C)[C@H](NC(=O)[C@H](CO)NC(=O)[C@H](C)NC(=O)[C@@H](NC(=O)[C@H](CCCCN)NC(=O)[C@H](CCCCN)NC(=O)[C@H](Cc1c[nH]c2ccccc12)NC(=O)[C@H](CC(N)=O)NC(=O)[C@@H](N)CCCCN)[C@@H](C)CC)C(=O)NCC(=O)N[C@@H](CCCCN)C(=O)N[C@@H](CCC(=O)O)C(=O)N[C@H](C(=O)N[C@@H](CC(C)C)C(=O)N[C@@H](CCCCN)C(=O)N[C@@H](C)C(=O)N[C@@H](CC(C)C)C(N)=O)C(C)C [KNWKKIASIGKEVLKAL] | 12.5 µM (≈ 24.1 µg/mL) |  |  |  | MIC (Bacillus subtilis): ≥ 60 µM |
